The text below walks through data of patent EP0748800A2, “Pyrimidinedione, pyrimidinetrione, triazinedione, tetrahydroquinazolinedione derivatives as alpha-1-adrenergic receptor antagonists” (priority 1995, dated 1996).

Molecules are shown by their SMILES.

Data set [1] deals with anesthetized dog. The experiment in a line: Dog in vivo intraurethral pressure assay (hypogastric nerve stimulation). As to conditions: i.v., increasing doses, relative to DAP. As for the experimental part:
(§1) The following describes an in vivo assay for measuring the relative effect of test compounds on hypogastric nerve stimulation-induced increases in intraurethral pressure and phenylephrine-induced increases in diastolic blood pressure in anesthetized dog.
(§2) Mongrel dogs (10 to 20 kg) were fasted for 12 to 18 hours and anesthetized with pentobarbital sodium (35 mg/kg, i.v.). An endotracheal tube was inserted and thereafter the lungs were mechanically ventilated with room air. The right femoral vein was isolated and cannulated with two polyethylene cannulae, one for the administration of a continuous infusion of pentobarbital sodium (5 to 10 mg/kg/hr) and the other for bolus administration of test substances. The right femoral artery was isolated and cannulated to the abdominal aorta with a fluid filled polyethylene cannula connected to an external pressure transducer for monitoring diastolic aortic pressure (DAP). The bladder was exposed via a ventral midline abdominal incision and emptied of urine through a 22 gauge needle. The bladder was cannulated through a stab incision with a water filled balloon catheter connected to an external pressure transducer for monitoring prostatic intraurethral pressure (IUP). The right hypogastric nerve (HGN) was carefully isolated and attached to a Dastre's electrode for nerve stimulation. […]

In data set [2] the test system is α1-adrenoceptor. As to conditions: relative to human prostatic/bladder neck smooth muscle; agonist norepinephrine.
Protocol: (§3) The following describes in vitro assays for measuring the relative effect of test compounds on α1-adrenoceptor mediated contractions of human, isolated arterial and urinary bladder smooth muscle.
Human arterial blood vessels were obtained post-mortem and immediately immersed in cold physiological saline solution. Within 24 hours of removal the isolated arterial tissue was placed in Krebs' solution (comprising in mM concentrations: NaCl, 118.5; NaHCO3, 25; dextrose, 5; KCl, 4.8; CaCl2, 2.5; MgSO4, 1.2; KH2PO4, 1.2; cocaine, 0.03; corticosterone, 0.03; propranolol, 0.001; ascorbic acid, 0.1; and indomethacin, 0.01). The arteries were dissected free from extraneous tissue and then cut into cross sectional rings approximately 3 mm in length. […] A resting tension of 1 to 1.5 g was applied to each ring and thereafter periodically readjusted to maintain a 1 g resting tension throughout the duration of the assay. […]
(§4) The tissue was then exposed to solution free of norepinephrine, replacing the solution twice every 5 minutes for 30 minutes. After baseline tension was established and readjusted to 1 g, the tissue was exposed to bath solution containing the test compound, replacing the solution every 15 minutes for 60 minutes. […]
(§5) The concentration ratio (CR) of norepinephrine necessary to produce equiactive responses in the absence and presence of the test compound was determined. […]
For data set [3], the system named is anesthetized dog. As to conditions: in vivo, iv. How it is done:
as §1, §2

For data set [4], the system named is α1-adrenoceptor. Particulars: relative to rabbit isolated urinary bladder smooth muscle; agonist norepinephrine.
Description: The following describes in vitro assays for measuring the relative effect of test compounds on α1-adrenoceptor mediated contraction of rat, isolated aortic smooth muscle and rabbit, isolated urinary bladder smooth muscle.
Thoracic aorta were isolated from rats and immediately immersed in Krebs' solution (comprising in mM concentrations: NaCl, 118.5; NaHCO3, 25; dextrose, 5; KCl, 4.8; CaCl2, 2.5; MgSO4, 1.2; KH2PO4, 1.2; cocaine, 0.03; corticosterone, 0.03; propranolol, 0.001; ascorbic acid, 0.1; and indomethacin, 0.01). The aortas were dissected free from extraneous tissue and then a cross sectional ring approximately 3 mm in length was cut from the most proximal segment. […] A resting tension of 1 g was applied to each aortic ring and thereafter periodically readjusted to maintain a 1 g resting tension throughout the duration of the assay. […]
The tissue was then exposed to solution free of agonist, replacing the solution twice every 5 minutes for 30 minutes. After baseline tension was established and readjusted to 1 g, the tissue was exposed to bath solution containing the test compound, replacing the solution every 15 minutes for 60 minutes. […]
The concentration ratio (CR) of agonist necessary to produce equiactive responses in the absence and presence of the test compound was determined. […]
For data set [5], the system named is α1-adrenoceptor. As to conditions: relative to human isolated arterial smooth muscle; agonist norepinephrine.
Description: as §3
Human prostatic and bladder neck smooth muscle tissue was obtained following radical cystoprostatectomies or radical prostatectomies and immediately immersed in Krebs' solution. The prostatic and bladder tissue was dissected free from extraneous tissue and then strips of tissue 0.8 to 1.2 cm in length and 3 to 5 mm in width were cut and suspended vertically in 10 ml tissue baths and bathed in Kreb's solution maintained at 37°C and constantly aerated with a 95% O2 and 5% CO2 gas mixture. A resting tension of 0.75 to 1 g was applied to each muscle strip and thereafter periodically readjusted to maintain a 1 g resting tension throughout the duration of the assay. […]
as §4, §5

As for `COc1cc2nc(N3CCN(C(=O)c4ccco4)CC3)nc(N)c2cc1OC` [prazosin], the “inhibition of HGN stimulation-induced increases in IUP” value with anesthetized dog [1] was “inhibited increases in IUP and DAP in a similar fashion”. For the same compound, in the data set on α1-adrenoceptor [2], the “inhibition of α1-adrenoceptor mediated contractions of human, isolated arterial smooth muscle” value is “non-selectively inhibited”. In addition, in the data set on anesthetized dog [3], the “inhibition of phenylephrine-induced increases in DAP” value was “inhibited increases in IUP and DAP in a similar fashion”. Besides, the “inhibition of α1-adrenoceptor mediated contractions of rat, isolated aortic smooth muscle” value in the data set with α1-adrenoceptor [4] is recorded as “selectively inhibited”. In addition, the “inhibition of α1-adrenoceptor mediated contractions of human, isolated prostatic and bladder neck smooth muscle” value with α1-adrenoceptor [5] is listed as “non-selectively inhibited”.
